The values that follow come from patent US20250368649A1, “TETRAHYDROPYRIDOPYRIMIDINE PAN-KRAS INHIBITORS” (Mirati Therapeutics, Inc., priority 2022, published 2025).

Molecules are shown by their SMILES.

One test deals with KRas WT (Homo sapiens, UniProt P01116). Description: KRas binding assay (TR-FRET displacement), KRas WT. The note with it: for inhibition at 0.01 µM: single point, 10 nM compound; for IC50: TR-FRET displacement. (In general: Time-resolved FRET reads energy transfer from a long-lived donor to a nearby acceptor.)
Chain of KRas WT (P01116 1-169 isoform P01116-2): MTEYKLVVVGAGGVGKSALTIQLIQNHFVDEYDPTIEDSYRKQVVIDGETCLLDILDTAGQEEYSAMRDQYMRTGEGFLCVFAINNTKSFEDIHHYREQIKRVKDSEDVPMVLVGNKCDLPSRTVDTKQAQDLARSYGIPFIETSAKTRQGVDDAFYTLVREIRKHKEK
In a further test the target is KRas G12A (Homo sapiens, UniProt P01116, G12A). Format: binding. The settings on record: for inhibition at 0.01 µM: single point, 10 nM compound, read-out: Binding to KRas (% inhibition at 10 nM) G12A; for IC50: TR-FRET displacement, read-out: Binding to KRas (IC50 nM) G12A.
Chain of KRas G12A (P01116 1-169 isoform P01116-2 G12A): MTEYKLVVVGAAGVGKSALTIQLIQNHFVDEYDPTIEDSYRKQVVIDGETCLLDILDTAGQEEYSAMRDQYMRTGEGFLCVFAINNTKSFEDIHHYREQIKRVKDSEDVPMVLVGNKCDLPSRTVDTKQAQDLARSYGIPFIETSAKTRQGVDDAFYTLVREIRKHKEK
A further test has as its target KRas G12C (Homo sapiens, UniProt P01116, G12C). Format: binding. The settings on record: for inhibition at 0.01 µM: single point, 10 nM compound, read-out: Binding to KRas (% inhibition at 10 nM) G12C; for IC50: TR-FRET displacement, read-out: Binding to KRas (IC50 nM) G12C.
A further test deals with KRas G12S (Homo sapiens, UniProt P01116, G12S). In kind it is binding. The note with it: for inhibition at 0.01 µM: single point, 10 nM compound, read-out: Binding to KRas (% inhibition at 10 nM) G12S; for IC50: TR-FRET displacement, read-out: Binding to KRas (IC50 nM) G12S.
Chain of KRas G12S (P01116 1-169 isoform P01116-2 G12S): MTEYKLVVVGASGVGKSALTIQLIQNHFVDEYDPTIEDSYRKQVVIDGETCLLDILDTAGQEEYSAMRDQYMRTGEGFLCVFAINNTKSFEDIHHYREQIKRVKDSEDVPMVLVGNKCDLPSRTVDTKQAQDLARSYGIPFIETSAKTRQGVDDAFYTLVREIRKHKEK
A further test deals with KRas G13D (Homo sapiens, UniProt P01116, G13D). In kind it is binding. The note with it: for inhibition at 0.01 µM: single point, 10 nM compound, read-out: Binding to KRas (% inhibition at 10 nM) G13D; for IC50: TR-FRET displacement, read-out: Binding to KRas (IC50 nM) G13D.
Chain of KRas G13D (P01116 1-169 isoform P01116-2 G13D): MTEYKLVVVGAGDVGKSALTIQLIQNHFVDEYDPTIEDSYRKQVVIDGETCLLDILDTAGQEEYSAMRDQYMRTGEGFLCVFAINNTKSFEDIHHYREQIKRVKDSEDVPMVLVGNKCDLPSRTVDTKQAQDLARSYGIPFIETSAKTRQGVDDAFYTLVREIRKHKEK
A further test concerns the target KRas Q61H (Homo sapiens, UniProt P01116, Q61H). Kind of test: KRas binding assay (TR-FRET displacement), KRas Q61H. The note with it: for inhibition at 0.01 µM: single point, 10 nM compound; for IC50: TR-FRET displacement.
For a further test, the system named is ASPC1 cells. Kind of test: Inhibition of KRas-mediated phosphorylation of ERK (Cisbio HTRF pERK), ASPC1 cells. The note with it: Homo sapiens, AsPC-1 cells; for IC50: ASPC1, 3 h, 3 hr compound incubation, Cisbio pERK HTRF; for inhibition at 0.1 µM: ASPC1, single point at 100 nM, 3 hrs compound incubation. Format: cell-based.
The subject of another test is H727 cells. Kind of test: Inhibition of KRas-mediated phosphorylation of ERK (Cisbio HTRF pERK), H727 cells. In kind it is cell-based. The settings on record: Homo sapiens; for IC50: NCI-H727, 3 h, 3 hr compound incubation, Cisbio pERK HTRF; for inhibition at 0.1 µM: NCI-H727, single point at 100 nM, 3 hrs compound incubation.
A further test has as its system A549 cells. Description: Inhibition of KRas-mediated phosphorylation of ERK (Cisbio HTRF pERK), A549 cells. The note with it: Homo sapiens, single point at 100 nM, 3 hrs compound incubation. Format: cell-based.
The test system of a further test is H460 cells. Description: Inhibition of KRas-mediated phosphorylation of ERK (Cisbio HTRF pERK), H460 cells. The settings on record: Homo sapiens, NCI-H460, single point at 100 nM, 3 hrs compound incubation. In kind it is cell-based.
The test system of a further test is HCT116 cells. Description: Inhibition of KRas-mediated phosphorylation of ERK (Cisbio HTRF pERK), HCT116 cells. The settings on record: Homo sapiens, HCT-116, single point at 100 nM, 3 hrs compound incubation. In kind it is cell-based.
A further test has as its system H358 cells. Description: Inhibition of KRas-mediated phosphorylation of ERK (Cisbio HTRF pERK), H358 cells. The settings on record: Homo sapiens, NCI-H358, single point at 100 nM, 3 hrs compound incubation. Format: cell-based.
The target in a further test is KRas G12D (Homo sapiens, UniProt P01116, G12D). Kind of test: biochemical. The settings on record: Binding to KRas (IC50 nM) G12D, TR-FRET displacement, KRas G12D.
Chain of KRas G12D (P01116 1-169 isoform P01116-2 G12D): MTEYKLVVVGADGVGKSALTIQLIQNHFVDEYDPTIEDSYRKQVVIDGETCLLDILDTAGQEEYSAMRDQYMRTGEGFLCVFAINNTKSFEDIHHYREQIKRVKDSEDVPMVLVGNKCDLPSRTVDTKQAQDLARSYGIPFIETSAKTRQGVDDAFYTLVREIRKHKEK
The next test has as its target KRas G12R (Homo sapiens, UniProt P01116, G12R). Description: biochemical. The settings on record: Binding to KRas (IC50 nM) G12R, TR-FRET displacement, KRas G12R.
The next test deals with KRas G12V (Homo sapiens, UniProt P01116, G12V). Kind of test: biochemical. The settings on record: Binding to KRas (IC50 nM) G12V, TR-FRET displacement, KRas G12V.
Chain of KRas G12V (P01116 1-169 isoform P01116-2 G12V): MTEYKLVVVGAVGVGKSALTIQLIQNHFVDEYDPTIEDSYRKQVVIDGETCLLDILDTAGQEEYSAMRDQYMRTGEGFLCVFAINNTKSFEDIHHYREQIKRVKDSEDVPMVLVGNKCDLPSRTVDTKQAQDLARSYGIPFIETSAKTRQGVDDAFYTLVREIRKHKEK

Chain of KRas G12R (P01116 1-169 isoform P01116-2 G12R): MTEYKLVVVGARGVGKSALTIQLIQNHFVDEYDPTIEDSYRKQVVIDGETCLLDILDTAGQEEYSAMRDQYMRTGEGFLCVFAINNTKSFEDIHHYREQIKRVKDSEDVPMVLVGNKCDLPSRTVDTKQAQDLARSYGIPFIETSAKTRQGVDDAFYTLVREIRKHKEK
Chain of KRas Q61H (P01116 1-169 isoform P01116-2 Q61H): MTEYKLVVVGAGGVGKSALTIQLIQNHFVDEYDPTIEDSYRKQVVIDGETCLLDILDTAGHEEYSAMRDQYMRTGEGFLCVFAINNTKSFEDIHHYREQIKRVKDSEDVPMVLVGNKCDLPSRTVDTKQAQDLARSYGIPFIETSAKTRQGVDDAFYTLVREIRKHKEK
Chain of KRas G12C (P01116 1-169 isoform P01116-2 G12C): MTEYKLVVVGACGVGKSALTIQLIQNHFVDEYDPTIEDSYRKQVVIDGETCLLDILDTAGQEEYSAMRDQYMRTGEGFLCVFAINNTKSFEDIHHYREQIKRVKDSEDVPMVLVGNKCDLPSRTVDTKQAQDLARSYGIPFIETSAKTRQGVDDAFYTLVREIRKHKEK

A word on the inhibition: it is the drop in the measured response relative to a control, in per cent. What is called IC50 is the midpoint of a concentration-inhibition curve. `CCc1c(F)ccc2cc(O)cc(N3CCc4c(nc(OC[C@@]56CCCN5C[C@H](F)C6)nc4N4CCCn5nc(C(=O)N6CC7CCC6CN7)cc5C4)C3)c12` (stereo partly drawn) [Example 264, 2,5-diazabicyclo[2.2.2]octan-2-yl(5-(7-(8-ethyl-7-fluoro-3-hydroxynaphthalen-1-yl)-2-(((2R,7aS)-2-fluorohexahydro-1H-pyrrolizin-7a-yl)methoxy)-5,6,7,8-tetrahydropyrido[3,4-d]pyrimidin-4-yl)-5,6,7,8-tetrahydro-4H-pyrazolo[1,5-a][1,4]diazepin-2-yl)methanone]: the inhibition at 0.01 µM was found to be 96% at KRas WT; 95% at KRas G12A; 100% at KRas G12C; 99% at KRas G12S; 97% on KRas G13D; 98% on KRas Q61H. The IC50 with ASPC1 cells was 51 nM; in the test with H727 cells it was 259 nM; on KRas G12D it was less than 2 nM; at KRas G12R, less than 2 nM; on KRas G12V it was less than 2 nM. The inhibition at 0.1 µM in the test on ASPC1 cells is 34%; with H727 cells, 22%; with A549 cells, 15%; with H460 cells, 0%; in the test with HCT116 cells it was -7%; with H358 cells, 43%.

For `CCc1c(F)ccc2cc(O)cc(N3CCc4c(nc(OC[C@@]56CCCN5C[C@H](F)C6)nc4N4CCCn5nc(CN(C)C(=O)N(C)C)cc5C4)C3)c12` [Example 288, 1-((5-(7-(8-ethyl-7-fluoro-3-hydroxynaphthalen-1-yl)-2-(((2R,7aS)-2-fluorohexahydro-1H-pyrrolizin-7a-yl)methoxy)-5,6,7,8-tetrahydropyrido[3,4-d]pyrimidin-4-yl)-5,6,7,8-tetrahydro-4H-pyrazolo[1,5-a][1,4]diazepin-2-yl)methyl)-1,3,3-trimethylurea], the inhibition at 0.01 µM at KRas WT amounted to 38%; on KRas G12A, 38%; at KRas G12C it was 56%; at KRas G12S, 53%; on KRas G13D, 40%; on KRas Q61H it was 33%. Moreover, the IC50 in the test on ASPC1 cells was 67 nM; with H727 cells it was 189 nM; at KRas G12D it was 4 nM; at KRas G12R, 9 nM; on KRas G12V, 6 nM. Besides, the inhibition at 0.1 µM with A549 cells worked out at 22%; with H460 cells it was 3%; in the test on HCT116 cells it was 17%; in the test with H358 cells, 26%.

As to `CN(C)C(=O)c1cc2n(n1)CCCN(c1nc(OCC34CCCN3CCC4)nc3c1CCN(c1cc(O)cc(Cl)c1C1CC1)C3)C2` [Example 437, 5-(7-(3-chloro-2-cyclopropyl-5-hydroxyphenyl)-2-((tetrahydro-1H-pyrrolizin-7a(5H)-yl)methoxy)-5,6,7,8-tetrahydropyrido[3,4-d]pyrimidin-4-yl)-N,N-dimethyl-5,6,7,8-tetrahydro-4H-pyrazolo[1,5-a][1,4]diazepine-2-carboxamide], the IC50 at KRas WT came to 8 nM; at KRas G12A, 7 nM; at KRas G12C it was 4 nM; at KRas G12S, 4 nM; on KRas G13D it was 14 nM; at KRas Q61H it was 12 nM. Also, the half-maximal inhibitory concentration (IC50) with ASPC1 cells is 5200 nM; with H727 cells it was 4480 nM; at KRas G12D it was less than 2 nM; at KRas G12R, 5 nM; on KRas G12V, less than 2 nM. Moreover, the inhibition at 0.1 µM in the test on ASPC1 cells is 2%; in the test with H727 cells, -2%; in the test on A549 cells, -10%; with H358 cells, -16%.

For the molecule `Oc1cc(Cl)c(C2CC2)c(N2CCc3c(nc(OCC45CCCN4CCC5)nc3N3CCC[C@]4(C3)C[C@H](O)C4)C2)c1` [Example 440, (2s,4r)-6-(7-(3-chloro-2-cyclopropyl-5-hydroxyphenyl)-2-((tetrahydro-1H-pyrrolizin-7a(5H)-yl)methoxy)-5,6,7,8-tetrahydropyrido[3,4-d]pyrimidin-4-yl)-6-azaspiro[3.5]nonan-2-ol], the IC50 at KRas WT was found to be 46 nM; on KRas G12A it was 46 nM; on KRas G12C, 30 nM; on KRas G12S, 41 nM; on KRas G13D, 73 nM; on KRas Q61H, 63 nM. The half-inhibitory concentration (IC50) is greater than 10000 nM in the test on ASPC1 cells; 6510 nM in the test on H727 cells; 44 nM on KRas G12D; 36 nM on KRas G12R; 13 nM at KRas G12V. In addition, the inhibition at 0.1 µM in the test on ASPC1 cells is -10%; with H727 cells, -10%; in the test on A549 cells it was -6%; with H358 cells, -1%.

Consider `Oc1cc(Cl)c(C2CC2)c(N2CCc3c(nc(OCC45CCCN4CCC5)nc3N3CCC[C@]4(C3)C[C@@H](O)C4)C2)c1` [Example 441, (2r,4s)-6-(7-(3-chloro-2-cyclopropyl-5-hydroxyphenyl)-2-((tetrahydro-1H-pyrrolizin-7a(5H)-yl)methoxy)-5,6,7,8-tetrahydropyrido[3,4-d]pyrimidin-4-yl)-6-azaspiro[3.5]nonan-2-ol], for which the IC50 on KRas WT came to 19 nM; at KRas G12A it was 19 nM; at KRas G12C, 11 nM; at KRas G12S it was 15 nM; at KRas G13D it was 27 nM; on KRas Q61H it was 21 nM. The 50% inhibitory concentration (IC50) with ASPC1 cells is greater than 10000 nM; in the test on H727 cells it was 5710 nM; on KRas G12D, 24 nM; on KRas G12R, 14 nM; at KRas G12V, 8 nM. The inhibition at 0.1 µM with ASPC1 cells was 9%; in the test on H727 cells, -17%; with A549 cells it was -33%; in the test with H358 cells it was 11%.

For `O=C1NC(=O)[C@]2(CCCN(c3nc(OCC45CCCN4CCC5)nc4c3CCN(c3c(C5CC5)c(Cl)cc5[nH]ncc35)C4)C2)N1` [Example 471, (R)-7-(7-(6-chloro-5-cyclopropyl-1H-indazol-4-yl)-2-((hexahydro-1H-pyrrolizin-7a-yl)methoxy)-5,6,7,8-tetrahydropyrido[3,4-d]pyrimidin-4-yl)-1,3,7-triazaspiro[4.5]decane-2,4-dione], the concentration for half-maximal inhibition (IC50) on KRas WT, at KRas G12A, at KRas G12C, on KRas G12S, on KRas G13D and at KRas Q61H was less than 2 nM in each case. For the same molecule, the half-maximal inhibitory concentration (IC50) in the test with ASPC1 cells was 5320 nM; in the test with H727 cells it was 2880 nM; on KRas G12D it was less than 2 nM; at KRas G12R, less than 2 nM; at KRas G12V, less than 2 nM. Moreover, the inhibition at 0.1 µM in the test on H460 cells and in the test on HCT116 cells was -3% throughout.

For the molecule `CN1CCC[C@H]1COc1nc2c(c(N3CCCC4(CC(O)C4)C3)n1)CCN(c1cccc3cccc(Cl)c13)C2` (stereo partly drawn) [Example 484, (S)-6-(7-(8-chloronaphthalen-1-yl)-2-((1-methylpyrrolidin-2-yl)methoxy)-5,6,7,8-tetrahydropyrido[3,4-d]pyrimidin-4-yl)-6-azaspiro[3.5]nonan-2-ol], the concentration for half-maximal inhibition (IC50) was 2960 nM on KRas WT; 2540 nM at KRas G12A; 1540 nM on KRas G12C; 2550 nM on KRas G12S; 4430 nM on KRas G13D; 3610 nM on KRas Q61H. For the same molecule, the IC50 in the test on ASPC1 cells was greater than 10000 nM; in the test with H727 cells, greater than 10000 nM; at KRas G12D it was 3120 nM; at KRas G12R, 1810 nM; on KRas G12V it was 1180 nM.
